Patent US7507728B2, “Halogen substituted imidazol[1,5-A][1,2,4]triazolo[1,5-D][1,4]benzodiazepine derivatives” (priority 2004, dated 2009)
Where two headings read alike, the source gives them in different places.

What was measured:
[1] = target: T1, GABA A receptor α1β3γ2 (hα1) (Homo sapiens, UniProt P14867+P18507); experiment: [3H]flumazenil competition binding, human GABA A α1β3γ2
T1 construct: expressed in transfected cells; host or cells: HEK293, transiently transfected; membranes
Experimental: (§1) The affinity of compounds at GABA A receptor subtypes was measured by competition for [^3H]flumazenil (85 Ci/mmol; Roche) binding to HEK293 cells expressing rat (stably transfected) or human (transiently transfected) receptors of composition α1β3γ2, α2β3γ2, α3β3γ2 and α5β3γ2.
(§2) Cell pellets were suspended in Krebs-tris buffer (4.8 mM KCl, 1.2 mM CaCl2, 1.2 mM MgCl2, 120 mM NaCl, 15 mM Tris; pH 7.5; binding assay buffer), homogenized by polytron for ca. 20 sec on ice and centrifuged for 60 min at 4° C. (50000 g; Sorvall, rotor: SM24=20000 rpm). The cell pellets were resuspended in Krebs-tris buffer and homogenized by polytron for ca. 15 sec on ice. Protein was measured (Bradford method, Bio-Rad) and aliquots of 1 mL were prepared and stored at −80° C.
(§3) Radioligand binding assays were carried out in a volume of 200 μL (96-well plates) which contained 100 μL of cell memebranes, [^3H]flumazenil at a concentration of 1 nM for α1, α2, α3 subunits and 0.5 nM for α5 subunits and the test compound in the range of 10^−10−3×10^−6 M. Nonspecific binding was defined by 10^−5 M diazepam and typically represented less than 5% of the total binding. Assays were incubated to equilibrium for 1 hour at 4° C. and harvested onto GF/C uni-filters (Packard) by filtration using a Packard harvester and washing with ice-cold wash buffer (50 mM Tris; pH 7.5). After drying, filter-retained radioactivity was detected by liquid scintillation counting. Ki values were calculated using Excel-Fit (Microsoft) and are the means of two determinations.

[2] = target: T2, GABA A receptor α3β3γ2 (hα3) (Homo sapiens, UniProt P18507+P34903); experiment: [3H]flumazenil competition binding, human GABA A α3β3γ2
T2 construct: expressed in transfected cells; host or cells: HEK293, transiently transfected; membranes
Experimental: as §1, §2, §3

[3] = target: T3, GABA A receptor α5β3γ2 (hα5) (Homo sapiens, UniProt P18507+P31644); experiment: [3H]flumazenil competition binding, human GABA A α5β3γ2
T3 construct: expressed in transfected cells; host or cells: HEK293, transiently transfected; membranes
Experimental: as §1, §2, §3

[4] = target: T4, GABA A receptor α2β3γ2 (hα2) (Homo sapiens, UniProt P18507+P47869); experiment: [3H]flumazenil competition binding, human GABA A α2β3γ2
T4 construct: expressed in transfected cells; host or cells: HEK293, transiently transfected; membranes
Experimental: as §1, §2, §3

[5] = HEK293 cells transiently transfected, 1 nM [3H]flumazenil, mean of two determinations, read-out: Ki[nM] hα1
[6] = HEK293 cells transiently transfected, 0.5 nM [3H]flumazenil, mean of two determinations, read-out: Ki[nM] hα5
[7] = HEK293 cells transiently transfected, 1 nM [3H]flumazenil, mean of two determinations, read-out: Ki[nM] hα3
[8] = HEK293 cells transiently transfected, 1 nM [3H]flumazenil, mean of two determinations, read-out: Ki[nM] hα2

Row | Structure (SMILES) | Ki [1, 5] [nM] | Ki [2] [nM] | Ki [3, 6] [nM] | Ki [4] [nM] | Ki [2, 7] [nM] | Ki [4, 8] [nM] | Ki [1] [nM] | Ki [3] [nM]
1 | Clc1ncn2c1Cn1ncnc1-c1ccccc1-2 [Example 1, 10-Chloro-9H-imidazo[1,5-a][1,2,4]triazolo[1,5-d][1,4]benzodiazepine] | 3.8 | 0.7 | 0.3 | 1.5 | – | – | – | –
2 | Fc1ccc2c(c1)-c1ncnn1Cc1c(Cl)ncn1-2 [Example 2, 10-Chloro-3-fluoro-9H-imidazo[1,5-a][1,2,4]triazolo[1,5-d][1,4]benzodiazepine] | 0.7 | 0.78 | 0.3 | 1.2 | – | – | – | –
3 | COc1ccc2c(c1)-c1ncnn1Cc1c(Cl)ncn1-2 [Example 3, 10-Chloro-3-methoxy-9H-imidazo[1,5-a][1,2,4]triazolo[1,5-d][1,4]benzodiazepine] | 12.2 | 11.7 | 0.8 | 17.2 | – | – | – | –
4 | FCCOc1ccc2c(c1)-c1ncnn1Cc1c(Cl)ncn1-2 [Example 7, 10-Chloro-3-(2-fluoro-ethoxy)-9H-imidazo[1,5-a][1,2,4]triazolo[1,5-d][1,4]benzodiazepine] | 18.5 | 20.7 | 1.3 | 25 | – | – | – | –
5 | FC(F)COc1ccc2c(c1)-c1ncnn1Cc1c(Cl)ncn1-2 [Example 8, 10-Chloro-3-(2,2-difluoro-ethoxy)-9H-imidazo[1,5-a][1,2,4]triazolo[1,5-d][1,4]benzodiazepine] | 22.1 | 24.4 | 2 | 29.4 | – | – | – | –
6 | C=COc1ccc2c(c1)-c1ncnn1Cc1c(Cl)ncn1-2 [Example 10, 10-Chloro-3-vinyloxy-9H-imidazo[1,5-a][1,2,4]triazolo[1,5-d][1,4]benzodiazepine] | 22.4 | 11.4 | 1.2 | 25.6 | – | – | – | –
7 | CNc1ccc2c(c1)-c1ncnn1Cc1c(Cl)ncn1-2 [Example 12, 10-Chloro-3-methylamino-9H-imidazo[1,5-a][1,2,4]triazolo[1,5-d][1,4]benzodiazepine] | 5.9 | 8 | 1.8 | 15.7 | – | – | – | –
8 | Clc1ncn2c1Cn1ncnc1-c1cc(Br)ccc1-2 [Example 21, 3-Bromo-10-chloro-9H-imidazo[1,5-a][1,2,4]triazolo[1,5-d][1,4]benzodiazepine] | 33 | – | 1.4 | – | 8.8 | 24.1 | – | –
9 | Cc1ccc2c(c1)-c1ncnn1Cc1c(Cl)ncn1-2 [Example 22, 10-Chloro-3-methyl-9H-imidazo[1,5-a][1,2,4]triazolo[1,5-d][1,4]benzodiazepine] | 19.6 | 21.4 | 1.8 | 40.5 | – | – | – | –
10 | Clc1ncn2c1Cn1ncnc1-c1cc(C3CC3)ccc1-2 [Example 30, 10-Chloro-3-cyclopropyl-9H-imidazo[1,5-a][1,2,4]triazolo[1,5-d][1,4]benzodiazepine] | 28.7 | 20.4 | 1.2 | 18.7 | – | – | – | –
11 | FC(F)c1ccc2c(c1)-c1ncnn1Cc1c(Cl)ncn1-2 [Example 32, 10-Chloro-3-difluoromethyl-9H-imidazo[1,5-a][1,2,4]triazolo[1,5-d][1,4]benzodiazepine] | 20.5 | 16 | 1.1 | 40.1 | – | – | – | –
12 | Brc1ncn2c1Cn1ncnc1-c1ccccc1-2 [Example 46, 10-Bromo-9H-imidazo[1,5-a][1,2,4]triazolo[1,5-d][1,4]benzodiazepine] | 2.4 | 0.6 | 0.2 | 0.8 | – | – | – | –
13 | Fc1ccc2c(c1)-c1ncnn1Cc1c(Br)ncn1-2 [Example 47, 10-Bromo-3-fluoro-9H-imidazo[1,5-a][1,2,4]triazolo[1,5-d][1,4]benzodiazepine] | 2.1 | 3.9 | 0.5 | 3.7 | – | – | – | –
14 | Clc1ccc2c(c1)-c1ncnn1Cc1c(I)ncn1-2 [Example 48, 3-Chloro-10-iodo-9H-imidazo[1,5-a][1,2,4]triazolo[1,5-d][1,4]benzodiazepine] | 9.2 | 11.3 | 1.4 | 14.7 | – | – | – | –
15 | O=C(Nc1ccc2c(c1)-c1ncnn1Cc1c(Cl)ncn1-2)C1CC1 [Example 50, 3-(Cyclopropanecarbonyl-amino)-10-chloro-9H-imidazo[1,5-a][1,2,4]triazolo[1,5-d][1,4]benzodiazepine] | – | – | 15.8 | – | – | – | – | –
16 | Clc1ncn2c1Cn1ncnc1-c1cc(-c3cccnc3)ccc1-2 [Example 57, 10-Chloro-3-(pyridin-3-yl)-9H-imidazo[1,5-a][1,2,4]triazolo[1,5-d][1,4]benzodiazepine] | 9.4 | 21.7 | 6.7 | 33.9 | – | – | – | –
17 | CCCc1ccc2c(c1)-c1ncnn1Cc1c(Cl)ncn1-2 [Example 64, 10-Chloro-3-propyl-9H-imidazo[1,5-a][1,2,4]triazolo[1,5-d][1,4]benzodiazepine] | 58.8 | – | 7 | – | 187 | 136 | – | –
18 | CCCCc1ccc2c(c1)-c1ncnn1Cc1c(Cl)ncn1-2 [Example 65, 3-Butyl-10-chloro-9H-imidazo[1,5-a][1,2,4]triazolo[1,5-d][1,4]benzodiazepine] | – | – | – | – | 115 | 106 | 39.2 | 9.6
19 | C=Cc1ccc2c(c1)-c1ncnn1Cc1c(Cl)ncn1-2 [Example 66, 10-Chloro-3-vinyl-9H-imidazo[1,5-a][1,2,4]triazolo[1,5-d][1,4]benzodiazepine] | 20.6 | – | 1.4 | – | 16.8 | 17.5 | – | –
20 | COC(=O)c1ccc2c(c1)-c1ncnn1Cc1c(Cl)ncn1-2 [Example 69, 10-Chloro-3-(methoxy-carbonyl)-9H-imidazo[1,5-a][1,2,4]triazolo[1,5-d][1,4]benzodiazepine] | 7.5 | 7.5 | 1 | 11.6 | – | – | – | –
21 | C=C=Cc1ccc2c(c1)-c1ncnn1Cc1c(Cl)ncn1-2 [Example 70, 10-Chloro-3-(propa-1,2-dienyl)-9H-imidazo[1,5-a][1,2,4]triazolo[1,5-d][1,4]benzodiazepine] | 26.9 | 30.7 | 3.2 | 30.3 | – | – | – | –
22 | Clc1ncn2c1Cn1ncnc1-c1cc(NC3CC3)ccc1-2 [Example 72, 10-chloro-3-cyclopropylamino-9H-imidazo[1,5-a][1,2,4]triazolo[1,5-d][1,4]benzodiazepine] | 21 | 78.8 | 2.2 | 93.7 | – | – | – | –
